Experimental data taken from the supplement of paper PMC10307832.

What was measured:
Assay in all cases: relative viability (nuclei count vs DMSO), 5 days (fraction); higher = more cells survive
BI-2536 + Tozasertib = compound: CC[C@@H]1C(=O)N(C)c2cnc(Nc3ccc(C(=O)NC4CCN(C)CC4)cc3OC)nc2N1C1CCCC1 [BI-2536] + Cc1cc(Nc2cc(N3CCN(C)CC3)nc(Sc3ccc(NC(=O)C4CC4)cc3)n2)n[nH]1 [Tozasertib] (partner 0.1 µM)
Procedure, shortened: (§1)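 Lung cancer cell lines were pin-tool dosed in 1536-well plates on the day after seeding, with either a lone drug or a fixed anchor-drug dose plus five library-drug doses (not always all listed) in √10 steps. Nuclei were counted on 4× images after 5 days. Relative viability is the ratio of treated-well to vehicle-well nuclei counts, with each value a median of duplicate plates.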

NPK76-II-72-1 + Olaparib = compound: CC1CC(=O)N(C2=CN=C(N=C2N1C3CCCC3)NC4=C(C=C(C=C4)C(=O)NC5CCN(CC5)C)OC)C [NPK76-II-72-1] + O=C(c1cc(Cc2n[nH]c(=O)c3ccccc23)ccc1F)N1CCN(C(=O)C2CC2)CC1 [Olaparib] (partner 8 µM)
Procedure, shortened: as §1

BI-2536 + Decitabine = compound: CC[C@@H]1C(=O)N(C)c2cnc(Nc3ccc(C(=O)NC4CCN(C)CC4)cc3OC)nc2N1C1CCCC1 [BI-2536] + Nc1ncn([C@H]2C[C@H](O)[C@@H](CO)O2)c(=O)n1 [Decitabine] (partner 2 µM)
Procedure, shortened: as §1

[1] = compound: CC1CC(=O)N(C2=CN=C(N=C2N1C3CCCC3)NC4=C(C=C(C=C4)C(=O)NC5CCN(CC5)C)OC)C [NPK76-II-72-1] + CS(=O)(=O)CCNCc1ccc(-c2ccc3ncnc(Nc4ccc(OCc5cccc(F)c5)c(Cl)c4)c3c2)o1 [Lapatinib] (partner 2 µM)
Procedure, shortened: as §1

Cell Line	relative viability (BI-2536 + Tozasertib; first compound 0.01 µM)	relative viability (BI-2536 + Tozasertib; first compound 0.03162 µM)	relative viability (BI-2536 + Tozasertib; first compound 0.1 µM)	relative viability (BI-2536 + Tozasertib; first compound 0.3162 µM)	relative viability (BI-2536 + Tozasertib; first compound 1 µM)	relative viability (NPK76-II-72-1 + Olaparib; first compound 0.01 µM)	relative viability (NPK76-II-72-1 + Olaparib; first compound 0.03162 µM)	relative viability (NPK76-II-72-1 + Olaparib; first compound 0.1 µM)	relative viability (NPK76-II-72-1 + Olaparib; first compound 0.3162 µM)	relative viability (NPK76-II-72-1 + Olaparib; first compound 1 µM)	relative viability (BI-2536 + Decitabine; first compound 0.01 µM)	relative viability (BI-2536 + Decitabine; first compound 0.03162 µM)	relative viability (BI-2536 + Decitabine; first compound 0.1 µM)	relative viability (BI-2536 + Decitabine; first compound 0.3162 µM)	relative viability (BI-2536 + Decitabine; first compound 1 µM)	relative viability ([1]; first compound 0.01 µM)	relative viability ([1]; first compound 0.03162 µM)	relative viability ([1]; first compound 0.1 µM)	relative viability ([1]; first compound 0.3162 µM)	relative viability ([1]; first compound 1 µM)
NCI-H1915	0.486	0.292	0.232	0.171	0.166	0.271	0.254	0.262	0.253	0.246	0.261	0.238	0.227	0.108	0.119	0.931	1.07	1.01	0.881	0.897
NCI-H1944	0.25	0.268	0.234	0.234	0.195	0.429	0.438	0.409	0.43	0.404	0.454	0.444	0.399	0.168	0.192	0.81	0.808	0.904	0.825	0.71
NCI-H1975	0.664	0.673	0.393	0.116	0.0975	0.769	0.841	0.716	0.811	0.75	0.321	0.372	0.276	0.172	0.14	0.813	0.878	0.928	0.886	0.955
NCI-H1993	0.497	0.615	0.609	0.617	0.59	0.96	1.05	1.24	1.07	1.29	0.61	0.601	0.436	0.42	0.405	0.729	0.92	0.906	0.822	0.788
NCI-H2009	0.769	0.667	0.459	0.321	0.23	0.652	0.787	0.675	0.686	0.64	0.4	0.337	0.324	0.193	0.169	0.961	1.09	0.888	0.774	1.15
NCI-H2023	0.389	0.461	0.234	0.11	0.108	0.469	0.57	0.561	0.425	0.491	0.186	0.191	0.112	0.091	0.084	0.813	1.06	1.13	0.878	1.02
NCI-H2085	0.787	0.737	0.478	0.368	0.438	0.718	0.77	0.783	0.726	0.83	0.629	0.484	0.484	0.301	0.303	0.748	0.735	0.763	0.714	0.78
NCI-H2087	0.25	0.214	0.155	0.119	0.12	0.532	0.653	0.548	0.672	0.626	0.273	0.247	0.149	0.0727	0.0981	1.01	0.999	0.987	0.983	1.05
NCI-H2126	0.884	0.373	0.296	0.236	0.269	0.903	0.897	0.901	0.855	0.956	0.547	0.591	0.492	0.247	0.244	0.686	0.806	0.755	0.733	0.823
